Experimental data reported in the supplement of paper PMC10307832.

How the values were obtained:
Experiment in all cases: relative viability (nuclei count vs DMSO), 5 days (fraction); higher = more cells survive
PAC-1 + Alpelisib = compound: C=CCc1cccc(/C=N/NC(=O)CN2CCN(Cc3ccccc3)CC2)c1O [PAC-1] + Cc1nc(NC(=O)N2CCC[C@H]2C(N)=O)sc1-c1ccnc(C(C)(C)C(F)(F)F)c1 [Alpelisib] (partner 2 µM)
Procedure, shortened: (§1)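 Relative viability divides the nuclei count in treated wells by that in vehicle wells. Lung cancer cell lines were seeded in 1536-well plates, dosed by pin tool the next day, and fixed and stained after 5 days in one step with final 0.05% Triton X-100, 1% formaldehyde and 1 ug/ml Hoechst. Dosing was a single drug or a fixed anchor-drug dose plus five library-drug doses (not always all listed) in √10 steps, and values are medians of duplicate plates imaged at 4×.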

PAC-1 + Decitabine = compound: C=CCc1cccc(/C=N/NC(=O)CN2CCN(Cc3ccccc3)CC2)c1O [PAC-1] + Nc1ncn([C@H]2C[C@H](O)[C@@H](CO)O2)c(=O)n1 [Decitabine] (partner 2 µM)
Procedure, shortened: as §1

Ibrutinib + Olaparib = compound: C=CC(=O)N1CCC[C@@H](n2nc(-c3ccc(Oc4ccccc4)cc3)c3c(N)ncnc32)C1 [Ibrutinib] + O=C(c1cc(Cc2n[nH]c(=O)c3ccccc23)ccc1F)N1CCN(C(=O)C2CC2)CC1 [Olaparib] (partner 8 µM)
Procedure, shortened: as §1

BMX-IN-1 + Foretinib = compound: C=CC(=O)Nc1cc(-n2c(=O)ccc3cnc4ccc(-c5ccc(NS(C)(=O)=O)cc5)cc4c32)ccc1C [BMX-IN-1] + COc1cc2c(Oc3ccc(NC(=O)C4(C(=O)Nc5ccc(F)cc5)CC4)cc3F)ccnc2cc1OCCCN1CCOCC1 [Foretinib] (partner 0.25 µM)
Procedure, shortened: as §1

Row | Cell Line | relative viability (PAC-1 + Alpelisib; first compound 0.02 µM) | relative viability (PAC-1 + Alpelisib; first compound 0.06325 µM) | relative viability (PAC-1 + Alpelisib; first compound 0.2 µM) | relative viability (PAC-1 + Alpelisib; first compound 2 µM) | relative viability (PAC-1 + Decitabine; first compound 0.02 µM) | relative viability (PAC-1 + Decitabine; first compound 0.06325 µM) | relative viability (PAC-1 + Decitabine; first compound 0.2 µM) | relative viability (PAC-1 + Decitabine; first compound 2 µM) | relative viability (Ibrutinib + Olaparib; first compound 0.005 µM) | relative viability (Ibrutinib + Olaparib; first compound 0.01581 µM) | relative viability (Ibrutinib + Olaparib; first compound 0.05 µM) | relative viability (Ibrutinib + Olaparib; first compound 0.1581 µM) | relative viability (Ibrutinib + Olaparib; first compound 0.5 µM) | relative viability (BMX-IN-1 + Foretinib; first compound 0.02 µM) | relative viability (BMX-IN-1 + Foretinib; first compound 0.2 µM) | relative viability (BMX-IN-1 + Foretinib; first compound 0.6325 µM) | relative viability (BMX-IN-1 + Foretinib; first compound 2 µM)
1 | 201T | 0.935 | 1 | 1.03 | 1.01 | 0.854 | 0.85 | 0.836 | 0.861 | 0.844 | 0.848 | 0.841 | 0.816 | 0.793 | 1.25 | 1.14 | 0.912 | 1.12
2 | A549 | 0.718 | 0.727 | 0.694 | 0.707 | 0.342 | 0.267 | 0.138 | 0.253 | – | 0.35 | 0.279 | 0.326 | 0.21 | 1.14 | 0.971 | 1.2 | 0.982
3 | A-427 | 1.17 | 1.08 | 1.05 | 1.05 | 0.602 | 0.56 | 0.532 | 0.542 | 0.71 | 0.722 | 0.723 | – | 0.766 | 1.1 | 1.24 | 1.02 | 0.97
4 | ABC-1 | 1.11 | 1.06 | 1.1 | 1.28 | 0.809 | 1.06 | 1.05 | 1.16 | 0.85 | 0.774 | – | – | 0.844 | 1.21 | 0.999 | 1.19 | 0.955
5 | BEN | 1.04 | 1.1 | 1.09 | 0.965 | 0.644 | 0.72 | 0.613 | 0.642 | 0.984 | 1.11 | 1.09 | 1.11 | 1.2 | 0.635 | 0.698 | 0.619 | 0.819
6 | CAL-12T | 1.13 | 1.18 | 1.16 | 1.37 | – | – | – | – | 0.665 | 0.677 | 0.658 | 0.818 | 0.506 | 1.28 | 1.2 | 1.31 | 1.1
7 | COR-L23 | 0.715 | 0.812 | 0.693 | 0.816 | 0.487 | 0.428 | – | 0.418 | 0.398 | 0.31 | 0.363 | 0.385 | 0.327 | 1.18 | 1.1 | 1.19 | 0.914
8 | COR-L 105 | 0.736 | 1.22 | 1.04 | 1.24 | 0.63 | 0.71 | 0.707 | 0.696 | 0.663 | 0.683 | 0.717 | 0.755 | 0.46 | 1.12 | 1.2 | 1.37 | 1.17
9 | Calu-6 | 0.929 | 1.03 | 0.931 | 1.13 | – | – | – | – | 0.673 | 0.582 | 0.576 | 0.599 | 0.589 | 0.918 | 1.07 | 0.908 | 0.776
10 | ChaGo-K-1 | – | – | – | – | 0.522 | 0.506 | 0.458 | 0.54 | 0.445 | 0.421 | 0.424 | 0.436 | 0.426 | 1.09 | 0.938 | 0.821 | 0.915
11 | EBC-1 | 0.769 | 0.808 | 0.736 | 0.809 | – | – | – | – | 0.718 | 0.645 | 0.606 | 0.737 | 0.797 | 0.0974 | 0.114 | 0.144 | 0.101
12 | EKVX | 0.788 | 0.956 | 0.801 | 0.899 | 0.216 | 0.315 | 0.378 | 0.319 | 0.691 | 0.835 | 0.674 | 0.935 | 0.449 | 0.784 | 0.902 | 0.965 | 0.893
13 | EMC-BAC-2 | 0.72 | 0.801 | 0.737 | 0.67 | 0.924 | 0.989 | 0.895 | 1.01 | 0.505 | 0.52 | 0.56 | – | 0.562 | 1.04 | 0.984 | 1.06 | 0.985
14 | EPLC-272H | – | 0.96 | 0.817 | 0.764 | 0.369 | 0.39 | 0.342 | 0.324 | 0.708 | 0.597 | 0.49 | 0.79 | 0.455 | 0.851 | 0.759 | 0.622 | 0.592
15 | H3255 | 0.823 | 0.78 | 0.702 | 0.717 | 0.593 | 0.849 | 0.534 | 0.63 | 0.533 | 0.53 | 0.516 | 0.623 | 0.407 | 0.859 | 0.989 | 0.925 | 0.99
16 | HARA | 0.735 | 0.809 | 0.779 | 0.928 | 0.573 | 0.688 | 0.507 | 0.487 | 0.96 | 0.712 | 0.778 | 0.763 | 0.384 | 1.43 | 1.27 | 0.936 | 0.799
17 | HCC-15 | 0.924 | 0.831 | 0.854 | 0.851 | 0.628 | 0.685 | 0.56 | 0.599 | 0.835 | 0.724 | 0.75 | 0.846 | 0.773 | 1.24 | 1.13 | 1.11 | 1.02
18 | HCC-44 | 0.782 | 0.875 | 0.774 | 0.855 | 1.03 | 0.914 | 0.855 | 0.933 | 1.06 | 0.965 | – | 1 | 1.07 | – | – | – | –
19 | HCC-78 | 0.308 | 0.373 | 0.368 | 0.303 | 0.749 | 0.639 | 0.529 | 0.649 | – | 0.773 | 0.716 | 0.87 | 0.679 | 0.626 | 0.544 | 0.587 | 0.545
20 | HCC-366 | 0.409 | 0.52 | 0.335 | 0.437 | 0.373 | 0.303 | 0.264 | 0.337 | 0.401 | 0.33 | 0.357 | 0.403 | 0.381 | 1.03 | 0.962 | 1.01 | 0.886
